From the NIST ThermoML archive (doi:10.1016/j.jct.2008.01.006)

Conditions: Liquid, Vibrating tube method

CCCCCCCN [1-heptanamine]
mass density [kg/m3]
Conditions | 293.15 K | 303.15 K | 313.15 K | 323.15 K | 333.15 K | 343.15 K | 353.15 K
100 kPa | 774.9 | 766.5 | 758.2 | 749.8 | 741.4 | 732.6 | 724.4
10000 kPa | 781.1 | 773.6 | 765.4 | 757.6 | 749.5 | 741.7 | 733.7
20000 kPa | 787.1 | 780 | 772 | 764.5 | 756.8 | 749.6 | 741.9
30000 kPa | 792.6 | 785.8 | 778.2 | 771 | 763.4 | 756.7 | 749.3
40000 kPa | 797.8 | 791.3 | 784 | 777 | 769.6 | 763.3 | 756.2
50000 kPa | 802.7 | 796.5 | 789.3 | 782.6 | 775.5 | 769.4 | 762.6
60000 kPa | 807.4 | 801.3 | 794.5 | 787.8 | 780.9 | 775.1 | 768.7
70000 kPa | 811.8 | 806 | 799.2 | 792.7 | 786.2 | 780.4 | 774.2
80000 kPa | 816.1 | 810.4 | 803.7 | 797.5 | 791.1 | 785.5 | 779.5
90000 kPa | 820.2 | 814.6 | 808 | 802 | 795.6 | 790.3 | 784.3
100000 kPa | 824 | 818.7 | 812.2 | 806.3 | 800 | 794.9 | 789.2
110000 kPa | 827.8 | 822.5 | 816.2 | 810.6 | 804.3 | 799.2 | 793.7
120000 kPa | 831.5 | 826.2 | 820.1 | 814.5 | 808.4 | 803.3 | 797.9
130000 kPa | 835 | 829.9 | 823.8 | 818.4 | 812.4 | 807.4 | 802.1
140000 kPa | 838.3 | 833.3 | 827.4 | 822.1 | 816.2 | 811.3 | 806.1

CCCCCCN [1-hexanamine]
mass density [kg/m3]
Conditions | 293.15 K | 303.15 K | 313.15 K | 323.15 K | 333.15 K | 343.15 K | 353.15 K
100 kPa | 765.1 | 756.2 | 748.2 | 738.9 | 730.2 | 721.3 | 712.4
10000 kPa | 771.5 | 763.5 | 755.4 | 746.9 | 738.7 | 730.6 | 722.3
20000 kPa | 777.6 | 770.2 | 762.3 | 754.2 | 746.3 | 738.8 | 731.1
30000 kPa | 783.4 | 776.3 | 768.6 | 761 | 753.4 | 746.4 | 739
40000 kPa | 788.8 | 781.9 | 774.6 | 767.2 | 759.9 | 753.2 | 746
50000 kPa | 793.8 | 787.2 | 780.2 | 772.9 | 765.9 | 759.6 | 752.5
60000 kPa | 798.8 | 792.2 | 785.3 | 778.4 | 771.6 | 765.6 | 759
70000 kPa | 803.3 | 796.9 | 790.3 | 783.5 | 776.9 | 771 | 764.6
80000 kPa | 807.7 | 801.5 | 794.9 | 788.4 | 781.9 | 776.2 | 770
90000 kPa | 811.9 | 805.8 | 799.4 | 792.9 | 786.7 | 781.1 | 775.1
100000 kPa | 815.9 | 810 | 803.7 | 797.3 | 791.2 | 785.9 | 780
110000 kPa | 819.8 | 814 | 807.8 | 801.7 | 795.7 | 790.3 | 784.6
120000 kPa | 823.5 | 817.9 | 811.7 | 805.8 | 799.9 | 794.6 | 789.1
130000 kPa | 827.1 | 821.6 | 815.5 | 809.7 | 803.8 | 798.8 | 793.2
140000 kPa | 830.5 | 825.1 | 819.1 | 813.5 | 807.6 | 802.7 | 797.3

CCCCCN [1-pentanamine]
mass density [kg/m3]
Conditions | 293.15 K | 303.15 K | 313.15 K | 323.15 K | 333.15 K | 343.15 K | 353.15 K
100 kPa | 754.1 | 744.7 | 735.6 | 726.4 | 716.9 | 707.5 | 698
10000 kPa | 760.9 | 752.6 | 743.8 | 735.1 | 726.1 | 717.8 | 708.7
20000 kPa | 767.4 | 759.6 | 751.1 | 742.8 | 734.3 | 726.5 | 718
30000 kPa | 773.4 | 765.9 | 757.9 | 749.8 | 741.7 | 734.4 | 726.3
40000 kPa | 778.9 | 772 | 764.1 | 756.3 | 748.5 | 741.6 | 733.9
50000 kPa | 784.2 | 777.4 | 769.8 | 762.3 | 754.8 | 748.2 | 740.8
60000 kPa | 789.3 | 782.7 | 775.2 | 768 | 760.7 | 754.3 | 747.4
70000 kPa | 794 | 787.4 | 780.3 | 773.2 | 766.3 | 760 | 753.3
80000 kPa | 798.5 | 792.1 | 785.1 | 778.2 | 771.5 | 765.4 | 759.1
90000 kPa | 802.8 | 796.5 | 789.7 | 783 | 776.5 | 770.6 | 764.2
100000 kPa | 806.9 | 800.8 | 794.1 | 787.6 | 781.1 | 775.4 | 769.3
110000 kPa | 810.8 | 805 | 798.4 | 792.1 | 785.6 | 780.1 | 774.1
120000 kPa | 814.7 | 808.8 | 802.4 | 796.2 | 790 | 784.4 | 778.6
130000 kPa | 818.4 | 812.5 | 806.4 | 800.3 | 794.2 | 788.7 | 782.9
140000 kPa | 822 | 816.1 | 810.1 | 804.2 | 798 | 792.8 | 787.2
